Test system: Genes belonging to other category
Experiment: DNA chip mRNA expression in yeast, genes belonging to other category (Table 9)
Type: cell-based, Saccharomyces cerevisiae S288C
Summary of the method: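 Cells were grown at 25° C. in YPD, treated at logarithmic phase for 2 h with a chemical at a concentration inhibiting growth but not causing death, and compared with untreated cultures. Labeled cDNA was hybridized to a DNA chip carrying all yeast genes, and the expression ratio was taken from scanner fluorescence.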

## S=C([S-])NCCNC(=S)[S-].[Zn+2] [(11), zinc N,N′-ethylenebis(dithiocarbamate)]
Yeast gene YJL141C
  The level of expressed mRNA in the presence of chemical substance/The level of expressed mRNA in the absence of chemical substance: 1.2
Yeast gene YJR004C
  The level of expressed mRNA in the presence of chemical substance/The level of expressed mRNA in the absence of chemical substance: 0.7
Yeast gene YJR058C
  The level of expressed mRNA in the presence of chemical substance/The level of expressed mRNA in the absence of chemical substance: 1.2
Yeast gene YJR069C
  The level of expressed mRNA in the presence of chemical substance/The level of expressed mRNA in the absence of chemical substance: 0.9
Yeast gene YJR086W
  The level of expressed mRNA in the presence of chemical substance/The level of expressed mRNA in the absence of chemical substance: 1.0
Yeast gene YKL008C
  The level of expressed mRNA in the presence of chemical substance/The level of expressed mRNA in the absence of chemical substance: 1.5
Yeast gene YKL013C
  The level of expressed mRNA in the presence of chemical substance/The level of expressed mRNA in the absence of chemical substance: 1.1
Yeast gene YKL039W
  The level of expressed mRNA in the presence of chemical substance/The level of expressed mRNA in the absence of chemical substance: 1.0
Yeast gene YKL041W
  The level of expressed mRNA in the presence of chemical substance/The level of expressed mRNA in the absence of chemical substance: 1.2
Yeast gene YKL079W
  The level of expressed mRNA in the presence of chemical substance/The level of expressed mRNA in the absence of chemical substance: 1.3
Yeast gene YKL096W
  The level of expressed mRNA in the presence of chemical substance/The level of expressed mRNA in the absence of chemical substance: 3.5
Yeast gene YKL097W-A
  The level of expressed mRNA in the presence of chemical substance/The level of expressed mRNA in the absence of chemical substance: 1.6
Yeast gene YKL139W
  The level of expressed mRNA in the presence of chemical substance/The level of expressed mRNA in the absence of chemical substance: 1.4
Yeast gene YKL165C
  The level of expressed mRNA in the presence of chemical substance/The level of expressed mRNA in the absence of chemical substance: 0.3
Yeast gene YKL193C
  The level of expressed mRNA in the presence of chemical substance/The level of expressed mRNA in the absence of chemical substance: 1.7
Yeast gene YKL198C
  The level of expressed mRNA in the presence of chemical substance/The level of expressed mRNA in the absence of chemical substance: 1.4
Yeast gene YKR014C
  The level of expressed mRNA in the presence of chemical substance/The level of expressed mRNA in the absence of chemical substance: 1.1
Yeast gene YLR093C
  The level of expressed mRNA in the presence of chemical substance/The level of expressed mRNA in the absence of chemical substance: 1.0
Yeast gene YLR110C
  The level of expressed mRNA in the presence of chemical substance/The level of expressed mRNA in the absence of chemical substance: 3.2
Yeast gene YLR118C
  The level of expressed mRNA in the presence of chemical substance/The level of expressed mRNA in the absence of chemical substance: 1.2
Yeast gene YLR120C
  The level of expressed mRNA in the presence of chemical substance/The level of expressed mRNA in the absence of chemical substance: 1.2
Yeast gene YLR136C
  The level of expressed mRNA in the presence of chemical substance/The level of expressed mRNA in the absence of chemical substance: 1.2
Yeast gene YLR178C
  The level of expressed mRNA in the presence of chemical substance/The level of expressed mRNA in the absence of chemical substance: 3.7
Yeast gene YLR250W
  The level of expressed mRNA in the presence of chemical substance/The level of expressed mRNA in the absence of chemical substance: 1.4
Yeast gene YLR251W
  The level of expressed mRNA in the presence of chemical substance/The level of expressed mRNA in the absence of chemical substance: 4.1
Yeast gene YLR327C
  The level of expressed mRNA in the presence of chemical substance/The level of expressed mRNA in the absence of chemical substance: 5.0
Yeast gene YLR340W
  The level of expressed mRNA in the presence of chemical substance/The level of expressed mRNA in the absence of chemical substance: 1.4
Yeast gene YLR356W
  The level of expressed mRNA in the presence of chemical substance/The level of expressed mRNA in the absence of chemical substance: 3.1
Yeast gene YLR360W
  The level of expressed mRNA in the presence of chemical substance/The level of expressed mRNA in the absence of chemical substance: 0.9
Yeast gene YLR362W
  The level of expressed mRNA in the presence of chemical substance/The level of expressed mRNA in the absence of chemical substance: 1.5
Yeast gene YLR391W
  The level of expressed mRNA in the presence of chemical substance/The level of expressed mRNA in the absence of chemical substance: 1.4
Yeast gene YLR429W
  The level of expressed mRNA in the presence of chemical substance/The level of expressed mRNA in the absence of chemical substance: 0.9
Yeast gene YML055W
  The level of expressed mRNA in the presence of chemical substance/The level of expressed mRNA in the absence of chemical substance: 1.4
Yeast gene YMR004W
  The level of expressed mRNA in the presence of chemical substance/The level of expressed mRNA in the absence of chemical substance: 2.5
Yeast gene YMR091C
  The level of expressed mRNA in the presence of chemical substance/The level of expressed mRNA in the absence of chemical substance: 0.9
Yeast gene YMR092C
  The level of expressed mRNA in the presence of chemical substance/The level of expressed mRNA in the absence of chemical substance: 1.2
Yeast gene YMR094W
  The level of expressed mRNA in the presence of chemical substance/The level of expressed mRNA in the absence of chemical substance: 1.0
Yeast gene YMR104C
  The level of expressed mRNA in the presence of chemical substance/The level of expressed mRNA in the absence of chemical substance: 1.1
Yeast gene YMR112C
  The level of expressed mRNA in the presence of chemical substance/The level of expressed mRNA in the absence of chemical substance: 0.9
Yeast gene YMR214W
  The level of expressed mRNA in the presence of chemical substance/The level of expressed mRNA in the absence of chemical substance: 0.7
Yeast gene YMR219W
  The level of expressed mRNA in the presence of chemical substance/The level of expressed mRNA in the absence of chemical substance: 1.5
Yeast gene YMR226C
  The level of expressed mRNA in the presence of chemical substance/The level of expressed mRNA in the absence of chemical substance: 1.4
Yeast gene YMR238W
  The level of expressed mRNA in the presence of chemical substance/The level of expressed mRNA in the absence of chemical substance: 1.2
Yeast gene YMR255W
  The level of expressed mRNA in the presence of chemical substance/The level of expressed mRNA in the absence of chemical substance: 1.2
Yeast gene YMR275C
  The level of expressed mRNA in the presence of chemical substance/The level of expressed mRNA in the absence of chemical substance: 1.1
Yeast gene YMR276W
  The level of expressed mRNA in the presence of chemical substance/The level of expressed mRNA in the absence of chemical substance: 1.9
Yeast gene YMR314W
  The level of expressed mRNA in the presence of chemical substance/The level of expressed mRNA in the absence of chemical substance: 1.8
Yeast gene YNL006W
  The level of expressed mRNA in the presence of chemical substance/The level of expressed mRNA in the absence of chemical substance: 1.1
Yeast gene YNL007C
  The level of expressed mRNA in the presence of chemical substance/The level of expressed mRNA in the absence of chemical substance: 1.3
Yeast gene YNL039W
  The level of expressed mRNA in the presence of chemical substance/The level of expressed mRNA in the absence of chemical substance: 0.4

Reference: patent US8192962B2, “Processes for detecting toxic substances” (Daikin Industries, Ltd., priority 2001, dated 2012)
